Data taken from publication PMC9380671, “Development of spiro-3-indolin-2-one containing compounds of antiproliferative and anti-SARS-CoV-2 properties” (Scientific Reports, 2022).
Like-named read-outs stand apart in the source and are kept apart here.

How the values were obtained:
BChE = BChE (Homo sapiens, UniProt P06276); assay: BChE inhibition (DTNB, butyrylthiocholine iodide)
[1] = tested on: A431 (skin squamous) cancer cell line; assay: MTT antiproliferation, A431; assay type: cell-based, human; settings: for IC50: Homo sapiens; for SI (selectivity index) A431: IC50 of RPE1/IC50 of cancer cell line
Procedure: (§1) Antiproliferation properties of the targeted agents were investigated by the standard MTT technique against diverse human cancer cell lines [MCF7 (breast), HCT116 (colon), A431 (skin squamous) and PaCa2 (pancreatic)][67] (Table 1, Supplementary Figs. S48‒S51).
(§2) Cells were seeded at concentration of 30000 cells per well in fresh complete growth medium in 96-well tissue culture microtiter plates for 24 h. […] 0.5% DMSO was used as negative control. Triplicate wells were prepared for each individual dose. After 72 h of incubation, medium was aspirated, 40 μl MTT salt (2.5 mg ml^-1) was added to each well and incubated for further 4 h at 37 °C. To stop the reaction and dissolve the formed crystals, 150 μl of 10% sodium dodecyl sulfate (SDS) in deionized water was added to each well and incubated overnight at 37 °C.
(§3) Data were collected as mean values for experiments performed in triplicates for each individual dose which had been measured by MTT assay. […] The cell surviving fraction was calculated according to the following equation.
(§4) Surviving fraction = OpticaldensityO.D.oftreatedcellsO.D.ofcontrolcells
(§5) Statistical calculations for determination of the mean and standard error mean values were determined by SPSS 16 software.

AChE = AChE (Homo sapiens, UniProt P22303); assay: AChE inhibition (DTNB, acetylthiocholine); assay type: biochemical; settings: for IC50: read-out: AChE (IC50, μM) ± SD
AChE, sequence (P22303 32-614): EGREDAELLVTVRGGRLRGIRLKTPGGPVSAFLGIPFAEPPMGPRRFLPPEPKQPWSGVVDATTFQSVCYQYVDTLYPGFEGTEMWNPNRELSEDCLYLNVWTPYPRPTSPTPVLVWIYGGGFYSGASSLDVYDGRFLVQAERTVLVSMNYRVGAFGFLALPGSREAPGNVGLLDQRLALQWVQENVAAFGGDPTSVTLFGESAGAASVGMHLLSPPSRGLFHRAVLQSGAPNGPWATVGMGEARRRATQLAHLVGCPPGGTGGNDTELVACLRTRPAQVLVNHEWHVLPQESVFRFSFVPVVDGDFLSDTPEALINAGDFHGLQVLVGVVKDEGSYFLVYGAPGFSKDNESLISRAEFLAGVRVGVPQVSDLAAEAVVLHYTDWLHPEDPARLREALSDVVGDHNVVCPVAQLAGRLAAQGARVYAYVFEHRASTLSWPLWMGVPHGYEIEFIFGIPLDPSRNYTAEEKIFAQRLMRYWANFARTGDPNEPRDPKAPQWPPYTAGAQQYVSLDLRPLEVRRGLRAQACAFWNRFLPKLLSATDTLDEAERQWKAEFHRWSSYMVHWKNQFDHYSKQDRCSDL
Procedure: All compounds were dissolved in MeOH.

EGFR = target: T1, EGFR (Homo sapiens, UniProt P00533); assay type: cell-based; settings: western blot, MCF7, compound at its MTT IC50; for EGFR RQ (relative quantification): control RQ 3.4461
T1 construct: Western blot technique was considered for EGFR and VEGFR-2 properties determination; endogenous in cells; host or cells: MCF7 (breast cancer cell line)
T1 sequence (P00533 25-1210): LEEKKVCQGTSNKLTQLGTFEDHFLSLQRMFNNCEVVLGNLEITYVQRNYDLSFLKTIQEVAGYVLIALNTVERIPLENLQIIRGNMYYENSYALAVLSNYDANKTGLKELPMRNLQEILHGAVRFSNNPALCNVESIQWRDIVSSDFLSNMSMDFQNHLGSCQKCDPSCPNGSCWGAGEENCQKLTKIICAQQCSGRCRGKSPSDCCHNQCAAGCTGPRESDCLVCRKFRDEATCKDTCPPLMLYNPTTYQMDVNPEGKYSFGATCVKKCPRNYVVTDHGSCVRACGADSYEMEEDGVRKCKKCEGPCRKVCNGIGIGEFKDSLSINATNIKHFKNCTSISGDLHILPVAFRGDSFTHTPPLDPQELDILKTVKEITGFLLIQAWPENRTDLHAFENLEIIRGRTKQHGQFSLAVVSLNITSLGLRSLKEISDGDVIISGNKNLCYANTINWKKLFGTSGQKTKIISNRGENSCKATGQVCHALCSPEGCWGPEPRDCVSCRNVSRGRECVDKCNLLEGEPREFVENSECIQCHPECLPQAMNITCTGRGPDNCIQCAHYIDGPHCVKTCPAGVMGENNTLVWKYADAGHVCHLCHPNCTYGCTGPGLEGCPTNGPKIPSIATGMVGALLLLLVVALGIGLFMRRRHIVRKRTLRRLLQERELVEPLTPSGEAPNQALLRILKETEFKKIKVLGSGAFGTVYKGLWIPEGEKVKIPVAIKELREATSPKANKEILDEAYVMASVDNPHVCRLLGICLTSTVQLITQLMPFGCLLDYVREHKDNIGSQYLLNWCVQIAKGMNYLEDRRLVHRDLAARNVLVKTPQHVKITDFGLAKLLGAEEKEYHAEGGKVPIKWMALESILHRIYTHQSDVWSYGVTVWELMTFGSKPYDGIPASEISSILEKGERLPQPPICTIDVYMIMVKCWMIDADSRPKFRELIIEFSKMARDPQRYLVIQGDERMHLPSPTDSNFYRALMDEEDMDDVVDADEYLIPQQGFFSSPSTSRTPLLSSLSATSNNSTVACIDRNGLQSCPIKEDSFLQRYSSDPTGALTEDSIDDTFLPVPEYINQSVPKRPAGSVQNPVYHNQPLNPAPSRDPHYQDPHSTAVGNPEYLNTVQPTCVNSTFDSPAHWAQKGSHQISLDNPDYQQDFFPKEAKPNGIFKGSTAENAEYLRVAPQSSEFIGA
Excerpt: (§6) The western blot technique was applied utilizing the IC50 observed for each respective agent synthesized during MTT assay[85],[86]. Consideration of multi-targeted inhibitory properties investigation is based in the fact that cancer initiation and proliferation sometimes utilizes many receptors or signaling pathways.
(§7) Western blot technique was considered for EGFR and VEGFR-2 properties determination utilizing the IC50 observed of each respective agent synthesized during MTT assay against MCF7 (breast) cancer cell line. All the studies were conducted according to the manufacturer’s instruction.^10,^11

VEGFR-2 = target: T2, VEGFR-2 (Homo sapiens, UniProt P35968); assay type: cell-based; settings: western blot, MCF7, compound at its MTT IC50; for VEGFR-2 RQ (relative quantification): control RQ 3.2634
T2 construct: Western blot technique was considered for EGFR and VEGFR-2 properties determination; endogenous in cells; host or cells: MCF7 (breast cancer cell line)
T2 sequence (P35968 20-1356): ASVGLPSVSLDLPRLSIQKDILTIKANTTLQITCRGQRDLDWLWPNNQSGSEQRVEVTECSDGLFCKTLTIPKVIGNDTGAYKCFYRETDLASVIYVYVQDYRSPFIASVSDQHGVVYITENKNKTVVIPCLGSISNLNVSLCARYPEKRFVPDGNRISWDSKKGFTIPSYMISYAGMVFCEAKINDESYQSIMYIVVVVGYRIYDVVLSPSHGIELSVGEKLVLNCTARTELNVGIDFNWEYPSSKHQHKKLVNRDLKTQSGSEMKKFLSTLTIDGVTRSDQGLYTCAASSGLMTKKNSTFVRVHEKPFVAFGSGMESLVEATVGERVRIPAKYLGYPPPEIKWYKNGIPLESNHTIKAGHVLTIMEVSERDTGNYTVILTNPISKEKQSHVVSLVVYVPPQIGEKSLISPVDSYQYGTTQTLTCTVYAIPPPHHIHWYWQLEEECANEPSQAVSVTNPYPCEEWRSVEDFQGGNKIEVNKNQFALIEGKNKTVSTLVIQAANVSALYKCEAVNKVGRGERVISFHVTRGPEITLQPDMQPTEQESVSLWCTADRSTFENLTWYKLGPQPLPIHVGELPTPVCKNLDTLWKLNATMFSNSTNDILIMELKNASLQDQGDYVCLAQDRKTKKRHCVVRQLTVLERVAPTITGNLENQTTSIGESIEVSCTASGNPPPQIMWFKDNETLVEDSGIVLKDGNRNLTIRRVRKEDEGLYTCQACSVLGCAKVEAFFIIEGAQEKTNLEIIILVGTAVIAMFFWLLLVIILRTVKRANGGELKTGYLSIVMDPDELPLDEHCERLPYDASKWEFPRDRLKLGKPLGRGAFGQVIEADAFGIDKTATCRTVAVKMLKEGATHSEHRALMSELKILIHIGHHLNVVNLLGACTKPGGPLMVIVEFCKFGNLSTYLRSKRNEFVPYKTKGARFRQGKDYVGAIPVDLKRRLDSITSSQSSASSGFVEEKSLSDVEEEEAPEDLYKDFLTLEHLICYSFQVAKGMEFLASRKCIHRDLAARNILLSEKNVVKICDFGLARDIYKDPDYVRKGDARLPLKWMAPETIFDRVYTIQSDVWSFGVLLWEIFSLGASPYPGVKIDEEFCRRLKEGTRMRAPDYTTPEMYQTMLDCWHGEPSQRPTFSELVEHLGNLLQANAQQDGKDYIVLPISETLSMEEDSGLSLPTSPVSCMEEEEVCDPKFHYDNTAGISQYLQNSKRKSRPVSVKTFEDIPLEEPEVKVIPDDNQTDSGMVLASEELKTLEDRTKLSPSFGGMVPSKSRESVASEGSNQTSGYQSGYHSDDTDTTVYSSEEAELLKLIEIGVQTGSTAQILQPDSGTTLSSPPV
Excerpt: as §6, §7

[2] = tested on: HCT116 (colon) cancer cell line; assay: MTT antiproliferation, HCT116; assay type: cell-based, human; settings: for IC50: Homo sapiens, HCT-116, 72 h, read-out: IC50 (µM) ± SEM HCT116; for SI (selectivity index) HCT116: IC50 of RPE1/IC50 of cancer cell line
Procedure: as §1, §2, §3, §4, §5

[3] = tested on: PaCa2 (pancreatic) cancer cell line; assay: MTT antiproliferation, PaCa-2; assay type: cell-based, human; settings: for IC50: Homo sapiens, PaCa-2, 72 h, read-out: IC50 (µM) ± SEM PaCa-2; for SI (selectivity index) PaCa-2: IC50 of RPE1/IC50 of cancer cell line
Procedure: as §1
Cells were suspended in DMEM medium for MCF7, A431, PaCa-2 and McCoy’s 5A for HCT116 in addition to 1% antibiotic–antimycotic mixture (10000 μg ml^-1 potassium penicillin, 10000 μg ml^-1 streptomycin sulfate and 25 μg ml^-1 amphotericin B), 10% fetal bovine serum and 1% L-glutamine at 37 °C, under 5% CO2 and 95% humidity. Cells were seeded at concentration of 30000 cells per well in fresh complete growth medium in 96-well tissue culture microtiter plates for 24 h. Media was aspirated, fresh complete medium was added and cells were incubated with different concentrations of the tested compound to give a final concentration of [50, 25, 12.5 and 6.25 μM “in addition to 3.125, 1.56 and 0.78 μM in case of high potent analogues”). 0.5% DMSO was used as negative control. Triplicate wells were prepared for each individual dose. After 72 h of incubation, medium was aspirated, 40 μl MTT salt (2.5 mg ml^-1) was added to each well and incubated for further 4 h at 37 °C. To stop the reaction and dissolve the formed crystals, 150 μl of 10% sodium dodecyl sulfate (SDS) in deionized water was added to each well and incubated overnight at 37 °C. The absorbance was then measured at 570 nm and a reference wavelength of 595 nm.
as §3, §4
(§8) Statistical calculations for determination of the mean and standard error mean values were determined by SPSS 16 software. The observed anti-proliferative properties are presented in Table 1 (Supplementary Figs. S48‒S52).

[4] = tested on: SARS-CoV-2 (hCoV-19/Egypt/NRC-03/2020); assay: Vero-E6 cell viral infection model, anti-SARS-CoV-2 IC50 (CPE, crystal violet); assay type: cell-based; settings: for IC50: Severe acute respiratory syndrome coronavirus 2, Vero C1008; for SI = CC50/IC50: Vero-E6, SARS-CoV-2
[5] = tested on: RPE1 (normal human immortalized retinal pigment epithelial cell line); assay: MTT toxicity towards normal cells, RPE1; assay type: cell-based; settings: RPE-1, read-out: IC50 (µM) ± SEM RPE1
Procedure: The safety of the synthesized agents against non-cancer/normal RPE1 (retinal pigment epithelium) cell line was assessed (Table 1, Supplementary Fig. S52). The SI (selectivity index) for the tested compounds against RPE1 cell line confirms the safety towards non-cancer cells. […] Compound 6d and 6h which are also of high anti-PaCa2 show remarkable SI values (SI = > 3.8, > 3.6, respectively).
The agents synthesized were also tested against RPE1 (normal human immortalized retinal pigment epithelial cell line) cell (in DMEM-F12 medium) to determine the toxicity/selectivity towards normal cells relative to the cancer cell lines utilized.
as §8

[6] = MTT cytotoxicity assay (CC50); assay type: cell-based; settings: African green monkey, VERO-E6 cells
Procedure: The cytotoxic activity of the compounds was tested in VERO-E6 cells by using the 3-(4,5-dimethylthiazol-2-yl)-2,5-diphenyltetrazolium bromide (MTT) method with minor modifications. Briefly, the cells were seeded in 96 well-plates […] at a density of 3 x 10^5 cell/ml and incubated for 24 h at 37 °C in 5% CO2. After 24 h, cells were treated with various concentrated of the tested compounds in triplicates. 24 h later, the supernatant was discarded and cell monolayers were washed with sterile 1x phosphate buffer saline (PBS) 3 times and MTT solution (20 µl of 5 mg/ml) was added to each well and incubated at 37 °C for 4 h followed by medium aspiration. In each well, the formed formazan crystals were dissolved with 200 µl of acidified isopropanol (0.04 M HCl in absolute isopropanol = 0.073 ml HCl in 50 ml isopropanol). Eventually, the absorbance was measured at λmax 570 nm using the Anthos Zenyth 200rt plate reader (Anthos Labtec Instruments, Heerhugowaard, Netherlands). The cytotoxicity of various concentrations compared to the untreated cells was determined using nonlinear regression analysis by plotting log inhibitor versus normalized response.^12^-14

[7] = tested on: MCF7 (breast) cancer cell line; assay: MTT antiproliferation, MCF7; assay type: cell-based, human; settings: for IC50: Homo sapiens, MCF7, 72 h, read-out: IC50 (µM) ± SEM MCF7; for SI (selectivity index) MCF7: IC50 of RPE1/IC50 of cancer cell line
Procedure: as §1, §2, §3, §4, §5

[8] = A-431, 72 h, read-out: IC50 (µM) ± SEM A431
[9] = A-431, read-out: Observed log(IC50, μM) (A431) (converted)
[10] = Vero-E6, 72 h, reduction of virus-induced CPE, read-out: IC50 (µM) SARS-CoV-2
[11] = log of observed IC50 in μM, read-out: Observed log(IC50, μM) (SARS-CoV-2) (converted)

BChE, sequence (P06276 29-602, species assumed): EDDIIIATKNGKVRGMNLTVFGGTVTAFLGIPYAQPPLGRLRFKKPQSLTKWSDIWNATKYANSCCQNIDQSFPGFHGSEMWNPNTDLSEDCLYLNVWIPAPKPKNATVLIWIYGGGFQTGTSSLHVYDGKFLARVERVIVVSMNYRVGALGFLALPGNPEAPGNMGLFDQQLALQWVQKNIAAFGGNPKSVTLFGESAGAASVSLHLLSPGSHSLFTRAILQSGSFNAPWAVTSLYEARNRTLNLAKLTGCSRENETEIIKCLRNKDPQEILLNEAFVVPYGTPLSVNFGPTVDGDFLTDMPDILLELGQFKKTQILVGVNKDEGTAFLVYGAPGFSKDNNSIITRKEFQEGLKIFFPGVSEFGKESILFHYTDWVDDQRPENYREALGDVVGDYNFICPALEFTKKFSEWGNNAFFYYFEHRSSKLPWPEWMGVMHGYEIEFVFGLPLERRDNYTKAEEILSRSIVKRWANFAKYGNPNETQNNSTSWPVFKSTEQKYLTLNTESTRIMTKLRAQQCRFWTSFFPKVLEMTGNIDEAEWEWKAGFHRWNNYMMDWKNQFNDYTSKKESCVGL

Structure (SMILES): COc1ccc(/C=C2\CN(S(C)(=O)=O)CC3(C2=O)C(c2ccc(OC)c(OC)c2)CN(C)C32C(=O)Nc3ccccc32)cc1OC (stereo not drawn) [Compound 6n, (E)-5″-(3,4-Dimethoxybenzylidene)-4′-(3,4-dimethoxyphenyl)-1′-methyl-1″-(methylsulfonyl)dispiro[indoline-3,2′-pyrrolidine-3′,3″-piperidine]-2,4″-dione]
- IC50 (BChE): 6.33 ± 0.85 µM
- IC50 [1, 8]: 34.9 ± 1.36 µM
- IC50 [1, 9]: 34.9 µM
- SI (selectivity index) A431 [1]: > 1.4
- SI = IC50 (AChE)/IC50 (BChE) (AChE): 0.9
- IC50 (AChE): 5.4 ± 0.94 µM
- EGFR % Inhibition (EGFR): 69.6%
- EGFR RQ (relative quantification) (EGFR): 1.047
- VEGFR-2 % Inhibition (VEGFR-2): 64.2%
- VEGFR-2 RQ (relative quantification) (VEGFR-2): 1.167
- IC50 [2]: 15.4 ± 0.52 µM
- SI (selectivity index) HCT116 [2]: > 3.2
- IC50 [3]: 32.8 ± 1.21 µM
- SI (selectivity index) PaCa-2 [3]: > 1.5
- IC50 [4, 10]: 35.9 µM
- IC50 [4, 11]: 35.9 µM
- SI = CC50/IC50 [4]: 17.3
- IC50 [5]: > 50 µM
- CC50 at 24 h [6]: 621 µM
- IC50 [7]: 40.2 ± 1.1 µM
- SI (selectivity index) MCF7 [7]: > 1.2

Structure (SMILES): CN1CC(c2ccccc2)C2(CN(S(C)(=O)=O)C/C(=C\c3ccccc3)C2=O)C12C(=O)Nc1ccccc12 (stereo not drawn) [Compound 6a, (E)-5″-Benzylidene-1′-methyl-1″-(methylsulfonyl)-4′-phenyldispiro[indoline-3,2′-pyrrolidine-3′,3″-piperidine]-2,4″-dione]
- IC50 (BChE): 19.8 ± 2.18 µM
- IC50 [1, 8]: 32.3 ± 1.14 µM
- IC50 [1, 9]: 32.3 µM
- SI (selectivity index) A431 [1]: > 1.5
- SI = IC50 (AChE)/IC50 (BChE) (AChE): 1.1
- IC50 (AChE): 22.2 ± 3.35 µM
- EGFR % Inhibition (EGFR): 66.4%
- EGFR RQ (relative quantification) (EGFR): 1.1593
- VEGFR-2 % Inhibition (VEGFR-2): 60.9%
- VEGFR-2 RQ (relative quantification) (VEGFR-2): 1.2773
- IC50 [2]: 16 ± 1.1 µM
- SI (selectivity index) HCT116 [2]: > 3.1
- IC50 [3]: 48.4 ± 2.23 µM
- SI (selectivity index) PaCa-2 [3]: > 1.0
- IC50 [4, 10]: 34.3 µM
- IC50 [4, 11]: 34.3 µM
- SI = CC50/IC50 [4]: 158.6
- IC50 [5]: > 50 µM
- CC50 at 24 h [6]: 5430 µM
- IC50 [7]: 19.8 ± 0.99 µM
- SI (selectivity index) MCF7 [7]: > 2.5

Structure (SMILES): CN1CC(c2ccc(Cl)cc2)C2(CN(S(C)(=O)=O)C/C(=C\c3ccc(Cl)cc3)C2=O)C12C(=O)Nc1ccc(Cl)cc12 (stereo not drawn) [Compound 6j, (E)-5-Chloro-5″-(4-chlorobenzylidene)-4′-(4-chlorophenyl)-1′-methyl-1″-(methylsulfonyl)dispiro[indoline-3,2′-pyrrolidine-3′,3″-piperidine]-2,4″-dione]
- IC50 (BChE): 22.3 ± 3.33 µM
- IC50 [1, 8]: 4.08 ± 0.21 µM
- IC50 [1, 9]: 4.08 µM
- SI (selectivity index) A431 [1]: 3.1
- SI = IC50 (AChE)/IC50 (BChE) (AChE): 1.9
- IC50 (AChE): 42.8 ± 4.61 µM
- EGFR % Inhibition (EGFR): 63.3%
- EGFR RQ (relative quantification) (EGFR): 1.2634
- VEGFR-2 % Inhibition (VEGFR-2): 57.9%
- VEGFR-2 RQ (relative quantification) (VEGFR-2): 1.3745
- IC50 [2]: 4.72 ± 0.25 µM
- SI (selectivity index) HCT116 [2]: 2.6
- IC50 [3]: 8.83 ± 0.51 µM
- SI (selectivity index) PaCa-2 [3]: 1.4
- IC50 [4, 10]: 27.1 µM
- IC50 [4, 11]: 27.1 µM
- SI = CC50/IC50 [4]: 7.4
- IC50 [5]: 12.5 ± 0.86 µM
- CC50 at 24 h [6]: 201 µM
- IC50 [7]: 4.51 ± 0.39 µM
- SI (selectivity index) MCF7 [7]: 2.8

Structure (SMILES): CCS(=O)(=O)N1C/C(=C\c2ccc(Cl)cc2)C(=O)C2(C1)C(c1ccc(Cl)cc1)CN(C)C21C(=O)Nc2ccccc21 (stereo not drawn) [Compound 6k, (E)-5″-(4-Chlorobenzylidene)-4′-(4-chlorophenyl)-1″-(ethylsulfonyl)-1′-methyldispiro[indoline-3,2′-pyrrolidine-3′,3″-piperidine]-2,4″-dione]
- IC50 (BChE): 19.6 ± 2.1 µM
- IC50 [1, 8]: 2.97 ± 0.29 µM
- IC50 [1, 9]: 2.97 µM
- SI (selectivity index) A431 [1]: 5.0
- SI = IC50 (AChE)/IC50 (BChE) (AChE): 1.6
- IC50 (AChE): 32.3 ± 4.78 µM
- EGFR % Inhibition (EGFR): 66.2%
- EGFR RQ (relative quantification) (EGFR): 1.163
- VEGFR-2 % Inhibition (VEGFR-2): 66.2%
- VEGFR-2 RQ (relative quantification) (VEGFR-2): 1.105
- IC50 [2]: 4.17 ± 0.38 µM
- SI (selectivity index) HCT116 [2]: 3.5
- IC50 [3]: 8.83 ± 0.7 µM
- SI (selectivity index) PaCa-2 [3]: 1.7
- IC50 [4, 10]: 8.43 µM
- IC50 [4, 11]: 8.43 µM
- SI = CC50/IC50 [4]: 6.6
- IC50 [5]: 14.8 ± 0.99 µM
- CC50 at 24 h [6]: 55.5 µM
- IC50 [7]: 4.38 ± 0.26 µM
- SI (selectivity index) MCF7 [7]: 3.4
